Results published in the NIST ThermoML archive (doi:10.1021/je700174h).
Numbers after ± are expanded uncertainties.

What was measured:
[1] = excess molar enthalpy (molar enthalpy of mixing); xn = mol fraction of the nth substance listed; details: 323.15 K, Liquid, Flow calorimetry
[2] = 323.15 K; Liquid; mass and volume balance equations

C=CCCCCCCCC [1-decene] + COC
[1]
Details	excess molar enthalpy [kJ/mol]
x2 = 0.1265	0.13 ± 0.0043
x2 = 0.2342	0.232 ± 0.0052
x2 = 0.3269	0.3 ± 0.0066
x2 = 0.4076	0.345 ± 0.0076
x2 = 0.4784	0.367 ± 0.008
x2 = 0.5411	0.378 ± 0.0083
x2 = 0.5971	0.378 ± 0.0083
x2 = 0.6472	0.367 ± 0.008
x2 = 0.6924	0.351 ± 0.0077
x2 = 0.7335	0.329 ± 0.0072
x2 = 0.7708	0.301 ± 0.0067
x2 = 0.805	0.272 ± 0.006
x2 = 0.8363	0.241 ± 0.0054
x2 = 0.8652	0.207 ± 0.0047
x2 = 0.892	0.174 ± 0.0044
x2 = 0.9167	0.139 ± 0.0043
x2 = 0.9397	0.103 ± 0.0043
x2 = 0.9612	0.0682 ± 0.0042
x2 = 0.9812	0.0337 ± 0.0041

c1ccccc1 [benzene]
Details	vapor or sublimation pressure [kPa]
[2]	35.47 ± 0.11

CCCCCCCCCC [decane]
Details	vapor or sublimation pressure [kPa]
[2]	1.18 ± 0.04

COC [dimethyl ether]
Details	vapor or sublimation pressure
[2]	1144.2 ± 3.5 kPa [middle of 6 runs]

COC [dimethyl ether] + CCCCCCCCCC
[1]
Details	excess molar enthalpy [kJ/mol]
x1 = 0.1299	0.237 ± 0.0053
x1 = 0.2396	0.409 ± 0.0089
x1 = 0.3336	0.526 ± 0.011
x1 = 0.4149	0.597 ± 0.013
x1 = 0.486	0.637 ± 0.014
x1 = 0.5487	0.654 ± 0.014
x1 = 0.6043	0.651 ± 0.014
x1 = 0.6541	0.634 ± 0.014
x1 = 0.6989	0.607 ± 0.013
x1 = 0.7393	0.571 ± 0.012
x1 = 0.7761	0.526 ± 0.011
x1 = 0.8097	0.479 ± 0.01
x1 = 0.8405	0.425 ± 0.0093
x1 = 0.8687	0.371 ± 0.0081
x1 = 0.8948	0.313 ± 0.0069
x1 = 0.919	0.252 ± 0.0056
x1 = 0.9414	0.19 ± 0.0045
x1 = 0.9623	0.127 ± 0.0043
x1 = 0.9818	0.0628 ± 0.0042

COC [dimethyl ether] + CCCCCCCCCCCC
[1]
Details	excess molar enthalpy [kJ/mol]
x1 = 0.1484	0.28 ± 0.0062
x1 = 0.269	0.466 ± 0.01
x1 = 0.3688	0.585 ± 0.013
x1 = 0.4529	0.658 ± 0.014
x1 = 0.5247	0.688 ± 0.015
x1 = 0.5866	0.697 ± 0.015
x1 = 0.6407	0.687 ± 0.015
x1 = 0.6882	0.66 ± 0.014
x1 = 0.7304	0.625 ± 0.014
x1 = 0.7681	0.583 ± 0.013
x1 = 0.8019	0.532 ± 0.012
x1 = 0.8324	0.48 ± 0.01
x1 = 0.8601	0.424 ± 0.0092
x1 = 0.8854	0.365 ± 0.008
x1 = 0.9085	0.306 ± 0.0068
x1 = 0.9298	0.247 ± 0.0055
x1 = 0.9494	0.185 ± 0.0045
x1 = 0.9675	0.124 ± 0.0043
x1 = 0.9844	0.0607 ± 0.0042

COC [dimethyl ether] + Cc1ccccc1
[1]
Details	excess molar enthalpy [kJ/mol]
x1 = 0.0753	-0.0488 ± 0.0041
x1 = 0.1467	-0.0906 ± 0.0042
x1 = 0.2145	-0.128 ± 0.004
x1 = 0.279	-0.158 ± 0.004
x1 = 0.3403	-0.18 ± 0.004
x1 = 0.3988	-0.199 ± 0.005
x1 = 0.4545	-0.213 ± 0.005
x1 = 0.5078	-0.223 ± 0.005
x1 = 0.5587	-0.226 ± 0.005
x1 = 0.6075	-0.228 ± 0.005
x1 = 0.6541	-0.224 ± 0.005
x1 = 0.6989	-0.216 ± 0.005
x1 = 0.7419	-0.206 ± 0.005
x1 = 0.7831	-0.19 ± 0.005
x1 = 0.8228	-0.17 ± 0.004
x1 = 0.8609	-0.147 ± 0.004
x1 = 0.8976	-0.118 ± 0.004
x1 = 0.933	-0.0831 ± 0.0042
x1 = 0.9671	-0.0443 ± 0.0041

COC [dimethyl ether] + O
[1]
Details	excess molar enthalpy [kJ/mol]
x1 = 0.0137	-0.132 ± 0.004
x1 = 0.0363	-0.317 ± 0.007
x1 = 0.0808	-0.543 ± 0.012
x1 = 0.1366	-0.646 ± 0.014
x1 = 0.2087	-0.547 ± 0.012
x1 = 0.3054	-0.399 ± 0.009
x1 = 0.4418	-0.188 ± 0.005
x1 = 0.5543	-0.0147 ± 0.0041
x1 = 0.6487	0.132 ± 0.004
x1 = 0.7036	0.216 ± 0.005
x1 = 0.7649	0.308 ± 0.007
x1 = 0.8337	0.413 ± 0.009
x1 = 0.8713	0.4 ± 0.009
x1 = 0.9114	0.348 ± 0.008
x1 = 0.9542	0.243 ± 0.005

COC [dimethyl ether] + c1ccccc1
[1]
Details	excess molar enthalpy [kJ/mol]
x1 = 0.0637	-0.0334 ± 0.0041
x1 = 0.1256	-0.064 ± 0.0042
x1 = 0.1857	-0.0945 ± 0.0042
x1 = 0.2442	-0.12 ± 0.004
x1 = 0.3011	-0.141 ± 0.004
x1 = 0.3565	-0.16 ± 0.004
x1 = 0.4104	-0.176 ± 0.004
x1 = 0.4628	-0.188 ± 0.005
x1 = 0.514	-0.196 ± 0.005
x1 = 0.5638	-0.2 ± 0.005
x1 = 0.6124	-0.2 ± 0.005
x1 = 0.6597	-0.197 ± 0.005
x1 = 0.7059	-0.189 ± 0.005
x1 = 0.751	-0.179 ± 0.004
x1 = 0.795	-0.161 ± 0.004
x1 = 0.8379	-0.141 ± 0.004
x1 = 0.8799	-0.115 ± 0.004
x1 = 0.9208	-0.0818 ± 0.0042
x1 = 0.9609	-0.0435 ± 0.0041

CCCCCCCCCCCC [dodecane]
Details	vapor or sublimation pressure [kPa]
[2]	0.2 ± 0.04

C=CCCCCCC [oct-1-ene]
Details	vapor or sublimation pressure [kPa]
[2]	8.3 ± 0.05

C=CCCCCCC [oct-1-ene] + COC
[1]
Details	excess molar enthalpy [kJ/mol]
x2 = 0.1071	0.104 ± 0.0043
x2 = 0.2021	0.187 ± 0.0045
x2 = 0.2868	0.248 ± 0.0055
x2 = 0.363	0.291 ± 0.0064
x2 = 0.4317	0.317 ± 0.007
x2 = 0.4941	0.331 ± 0.0073
x2 = 0.551	0.335 ± 0.0074
x2 = 0.6031	0.332 ± 0.0073
x2 = 0.6509	0.322 ± 0.0071
x2 = 0.695	0.307 ± 0.0068
x2 = 0.7358	0.284 ± 0.0063
x2 = 0.7737	0.26 ± 0.0058
x2 = 0.8089	0.233 ± 0.0052
x2 = 0.8417	0.203 ± 0.0046
x2 = 0.8724	0.174 ± 0.0044
x2 = 0.9011	0.14 ± 0.0043
x2 = 0.9281	0.106 ± 0.0043
x2 = 0.9535	0.071 ± 0.0042
x2 = 0.9774	0.0352 ± 0.0041

Cc1ccccc1 [toluene]
Details	vapor or sublimation pressure [kPa]
[2]	12.22 ± 0.05

O [water]
Details	vapor or sublimation pressure [kPa]
[2]	12.29 ± 0.05
